ChEMBL document CHEMBL2074362, “Lithocholic acid decreases expression of bile salt export pump through farnesoid X receptor antagonist activity” (J Biol Chem, 2002)

Target: Bile salt export pump (Homo sapiens, UniProt O95342)
Assay: TP_TRANSPORTER: Taq-Man PCR in vitro, primary hepatocytes
Format: functional, cell-based, Hepatocyte

Bile salt export pump, sequence (O95342 whole entry): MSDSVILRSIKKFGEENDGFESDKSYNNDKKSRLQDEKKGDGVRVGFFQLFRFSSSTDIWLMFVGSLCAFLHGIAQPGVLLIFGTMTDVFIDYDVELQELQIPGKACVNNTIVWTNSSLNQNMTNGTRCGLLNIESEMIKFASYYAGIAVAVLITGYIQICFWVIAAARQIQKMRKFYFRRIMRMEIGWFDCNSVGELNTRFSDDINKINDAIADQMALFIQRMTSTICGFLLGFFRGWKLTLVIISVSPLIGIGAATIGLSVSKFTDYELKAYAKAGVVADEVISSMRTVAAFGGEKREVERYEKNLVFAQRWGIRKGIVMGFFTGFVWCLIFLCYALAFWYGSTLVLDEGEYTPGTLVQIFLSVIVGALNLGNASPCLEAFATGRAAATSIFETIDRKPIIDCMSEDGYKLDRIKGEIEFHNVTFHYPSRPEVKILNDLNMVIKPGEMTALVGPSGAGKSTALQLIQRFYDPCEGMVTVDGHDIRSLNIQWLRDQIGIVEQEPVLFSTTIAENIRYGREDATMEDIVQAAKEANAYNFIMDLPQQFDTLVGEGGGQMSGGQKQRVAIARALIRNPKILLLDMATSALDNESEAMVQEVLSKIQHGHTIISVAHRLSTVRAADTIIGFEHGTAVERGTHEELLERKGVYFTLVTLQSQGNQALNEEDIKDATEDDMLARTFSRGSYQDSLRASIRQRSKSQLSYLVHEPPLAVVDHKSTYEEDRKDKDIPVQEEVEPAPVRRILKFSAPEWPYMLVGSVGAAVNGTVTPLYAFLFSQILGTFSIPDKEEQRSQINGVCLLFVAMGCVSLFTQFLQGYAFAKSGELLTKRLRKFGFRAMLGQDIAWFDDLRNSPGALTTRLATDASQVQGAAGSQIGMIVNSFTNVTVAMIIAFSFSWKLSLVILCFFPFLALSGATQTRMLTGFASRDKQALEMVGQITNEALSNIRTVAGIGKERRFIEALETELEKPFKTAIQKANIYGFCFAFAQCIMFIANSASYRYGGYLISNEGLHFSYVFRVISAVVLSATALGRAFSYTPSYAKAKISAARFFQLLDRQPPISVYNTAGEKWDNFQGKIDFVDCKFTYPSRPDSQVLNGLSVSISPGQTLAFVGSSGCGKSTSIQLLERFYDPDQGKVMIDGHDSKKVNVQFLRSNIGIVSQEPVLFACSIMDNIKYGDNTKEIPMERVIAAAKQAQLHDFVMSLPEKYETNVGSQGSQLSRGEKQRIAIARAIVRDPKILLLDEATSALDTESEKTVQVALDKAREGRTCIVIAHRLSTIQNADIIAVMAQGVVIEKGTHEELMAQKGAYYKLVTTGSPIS

`CC(C)c1onc(-c2c(Cl)cccc2Cl)c1COc1ccc(/C=C/c2cccc(C(=O)O)c2)c(Cl)c1` was tested, and the Activity was “inducer [+]”.
